ChEMBL document CHEMBL5131409, “Synthesis and characterization of chiral 6-azaspiro[2.5]octanes as potent and selective antagonists of the M4 muscarinic acetylcholine receptor” (Bioorg Med Chem Lett, 2022)

How the values were obtained:
[1] = molecular target: T1, Muscarinic acetylcholine receptor M4 (Homo sapiens, UniProt P08173); assay: Inhibition of human muscarinic acetylcholine M4 receptor expressed in CHO cells co-expressing Gqi5 in the presence of acetylcholine at EC80 concentration by calcium mobilization assay; assay type: functional, cell-based
T1 sequence (P08173 whole entry): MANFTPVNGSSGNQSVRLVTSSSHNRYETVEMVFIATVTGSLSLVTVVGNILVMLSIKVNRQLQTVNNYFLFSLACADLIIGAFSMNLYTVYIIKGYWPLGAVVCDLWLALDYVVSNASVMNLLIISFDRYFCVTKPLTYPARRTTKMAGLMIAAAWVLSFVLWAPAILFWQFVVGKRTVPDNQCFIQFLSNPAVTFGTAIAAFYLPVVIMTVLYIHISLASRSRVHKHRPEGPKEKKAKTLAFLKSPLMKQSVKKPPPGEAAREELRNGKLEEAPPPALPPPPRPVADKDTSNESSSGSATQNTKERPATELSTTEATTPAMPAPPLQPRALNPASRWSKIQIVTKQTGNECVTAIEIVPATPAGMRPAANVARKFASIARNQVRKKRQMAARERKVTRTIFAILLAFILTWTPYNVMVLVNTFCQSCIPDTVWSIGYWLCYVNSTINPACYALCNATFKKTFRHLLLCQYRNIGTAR

[2] = molecular target: T2, Muscarinic acetylcholine receptor M4 (Homo sapiens) (UniProt P08173); assay: Antagonist activity at human muscarinic acetylcholine M4 receptor expressed in CHO cells co-expressing Gqi5 assessed as minimal acetylcholine response by calcium mobilization assay relative to control; assay type: functional, cell-based; set-up: scale not given: the % may be the effect or the level left; conditions: filed as antagonist
T2 sequence (whole entry): T1 sequence (P08173 whole entry)

[3] = molecular target: T3, Muscarinic acetylcholine receptor M2 (Homo sapiens, UniProt P08172); assay: Inhibition of human muscarinic acetylcholine M2 receptor expressed in CHO cells co-expressing Gqi5 in the presence of acetylcholine at EC80 concentration by calcium mobilization assay; assay type: functional, cell-based
T3 sequence (P08172 whole entry): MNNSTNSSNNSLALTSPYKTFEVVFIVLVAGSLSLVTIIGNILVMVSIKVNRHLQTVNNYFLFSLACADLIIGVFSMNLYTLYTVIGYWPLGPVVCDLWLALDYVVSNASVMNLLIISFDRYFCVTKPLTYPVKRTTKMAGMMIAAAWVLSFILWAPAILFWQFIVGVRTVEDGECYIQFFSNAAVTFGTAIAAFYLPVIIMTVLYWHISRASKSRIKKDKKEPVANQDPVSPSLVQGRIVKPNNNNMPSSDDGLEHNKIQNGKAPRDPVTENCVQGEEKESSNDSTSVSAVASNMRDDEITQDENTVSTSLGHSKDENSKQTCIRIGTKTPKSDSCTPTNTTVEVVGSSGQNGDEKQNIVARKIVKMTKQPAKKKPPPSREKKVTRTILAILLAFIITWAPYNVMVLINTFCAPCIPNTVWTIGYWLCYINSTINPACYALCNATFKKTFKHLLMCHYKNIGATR

[4] = Plasma clearance in rat at 3 mg/kg, iv; assay type: ADME, organism-based
[5] = Volume of distribution in rat at 3 mg/kg, iv; assay type: ADME, organism-based; conditions: in vivo
[6] = AUC (0 to last) in rat at 3 mg/kg, iv; assay type: ADME, organism-based; set-up: time 0 - last, dose 3 mg/kg, route iv; conditions: in vivo
[7] = AUC (0 to infinity) in rat at 3 mg/kg, iv; assay type: ADME, organism-based; set-up: time infinity, dose 3 mg/kg, route iv; conditions: in vivo
[8] = Cmax in rat plasma at 3 mg/kg, ip; assay type: ADME, organism-based; set-up: dose 3 mg/kg, route ip
[9] = Cmax in mouse plasma at 3 mg/kg, ip; assay type: ADME, organism-based; set-up: dose 3 mg/kg, route ip
[10] = Tmax in mouse plasma at 3 mg/kg, ip; assay type: ADME, organism-based
[11] = AUC (0.25 to last) in rat plasma at 3 mg/kg, ip; assay type: ADME, organism-based; set-up: dose 3 mg/kg, route ip
[12] = AUC (0.25 to last) in mouse plasma at 3 mg/kg, ip; assay type: ADME, organism-based; set-up: dose 3 mg/kg, route ip
[13] = AUC (0.25 to last) in mouse brain at 3 mg/kg, ip; assay type: ADME, organism-based; conditions: in vivo
[14] = Ratio of AUC (0.25 to last) in rat brain to plasma at 3 mg/kg, ip; assay type: ADME, organism-based; conditions: read-out: Ratio AUC
[15] = molecular target: T1, Muscarinic acetylcholine receptor M4; assay: Displacement of [3H]-NMS from human muscarinic acetylcholine M4 receptor expressed in CHO cell membrane by competitive binding assay; assay type: cell membranes
[16] = molecular target: T4, Muscarinic acetylcholine receptor M1 (Rattus norvegicus, UniProt P08482); assay: Inhibition of rat muscarinic acetylcholine M1 receptor expressed in CHO cells co-expressing Gqi5 preincubated with compound followed by acetylcholine addition at EC80 concentration by calcium mobilization assay; assay type: functional, cell-based
T4 sequence (P08482 whole entry): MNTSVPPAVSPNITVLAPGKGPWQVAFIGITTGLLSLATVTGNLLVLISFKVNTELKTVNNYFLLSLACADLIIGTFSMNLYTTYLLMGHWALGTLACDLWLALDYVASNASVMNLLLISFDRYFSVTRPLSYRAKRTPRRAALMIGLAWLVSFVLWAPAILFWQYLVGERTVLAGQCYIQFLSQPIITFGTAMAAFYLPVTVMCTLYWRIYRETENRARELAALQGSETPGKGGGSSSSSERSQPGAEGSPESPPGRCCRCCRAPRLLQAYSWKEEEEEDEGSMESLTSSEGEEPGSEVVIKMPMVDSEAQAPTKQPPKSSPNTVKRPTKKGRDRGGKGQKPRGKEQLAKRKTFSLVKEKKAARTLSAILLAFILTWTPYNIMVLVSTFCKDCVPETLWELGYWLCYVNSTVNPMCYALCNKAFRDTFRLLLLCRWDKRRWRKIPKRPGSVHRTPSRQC

[17] = molecular target: T5, Muscarinic acetylcholine receptor M5 (Rattus norvegicus, UniProt P08911); assay: Inhibition of rat muscarinic acetylcholine M5 receptor expressed in CHO cells co-expressing Gqi5 preincubated with compound followed by acetylcholine addition at EC80 concentration by calcium mobilization assay; assay type: functional, cell-based
T5 sequence (P08911 whole entry): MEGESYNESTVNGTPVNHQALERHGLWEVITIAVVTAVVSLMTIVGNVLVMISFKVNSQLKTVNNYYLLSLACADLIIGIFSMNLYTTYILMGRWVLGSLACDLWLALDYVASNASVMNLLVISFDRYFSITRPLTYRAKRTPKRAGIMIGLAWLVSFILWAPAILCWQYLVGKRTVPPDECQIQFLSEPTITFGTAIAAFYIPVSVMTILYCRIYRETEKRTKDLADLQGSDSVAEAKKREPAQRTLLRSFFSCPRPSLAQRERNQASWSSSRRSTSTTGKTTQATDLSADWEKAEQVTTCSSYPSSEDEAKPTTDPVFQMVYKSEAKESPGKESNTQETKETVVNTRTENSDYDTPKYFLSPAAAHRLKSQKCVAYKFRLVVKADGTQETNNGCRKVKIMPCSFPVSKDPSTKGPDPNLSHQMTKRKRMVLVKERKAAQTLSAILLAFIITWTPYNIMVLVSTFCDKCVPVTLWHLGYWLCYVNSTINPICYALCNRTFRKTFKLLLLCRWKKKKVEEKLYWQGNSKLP

[18] = molecular target: T3, Muscarinic acetylcholine receptor M2; assay: Inhibition of human muscarinic acetylcholine M2 receptor expressed in CHO cells co-expressing Gqi5 preincubated with compound followed by acetylcholine addition at EC80 concentration by calcium mobilization assay; assay type: functional, cell-based

## CC(=O)Nc1ccc(-c2ccc(NC[C@@H]3CC34CCN(CC3CCOCC3)CC4)nn2)cc1
[1]
  IC50: 0.071 µM
[2]
  Activity: 3.2%
[3]
  IC50: > 10 µM
[4]
  clearance: 257 mL/min/kg
[5]
  Vd: 147 L/kg
[6]
  AUC(0-t): 181 ng·h/mL
[7]
  AUC(0-inf): 202 ng·h/mL
[8]
  Cmax: 6700 ng/mL
[9]
  Cmax: 6870 ng/mL
[10]
  Tmax: 30 min
[11]
  AUC: 9550 ng·h/mL
[12]
  AUC: 10500 ng·h/mL
[13]
  AUClast: 3980 ng·h/g
[14]
  Kp: 0.23
[15]
  Ki: 0.0433 µM
[16]
  IC50: > 10 µM
[17]
  IC50: > 10 µM
[18]
  IC50: > 10 µM
